From BindingDB's records for doi:10.1016/j.bmcl.2012.04.118 (Astrazeneca, 2012)

Test: Inhibition of MCP1-induced CCR2-mediated chemotaxis in human THP-1 cells

For `CC(C)N1CCN[C@@H](C(=O)N2CCN(C(=O)Nc3ccc(Cl)c(Cl)c3)CC2)C1`, which IC50 is on record?
Its IC50 is 5.1 nM.
